Experimental data published in US8129547B2, “Anticoagulation of human blood ex vivo” (priority 2006, dated 2012).
Structures can show the parent of a compound that is named as a salt.

Tests used:
[1] = target: T1, Factor XIa (Homo sapiens, UniProt P03951); test: Determination of Ki values, chromogenic substrate, Dixon evaluation: Factor XIa; type: biochemical; settings: 25° C., tris buffer pH 8.0, substrate H-D-Lys(Cbo)-Pro-Arg-pNA
T1 construct: purchased Haemochrom Diagnostica GmbH (Essen, D)
Description: (§1) The inhibitors used here are the commercially available exemplary inhibitors Pefabloc tPA/Xa (2,7-bis(4-amidinobenzylidene)-cyclopeptanone-(1), Pentapharm Ltd. Basel, Switzerland), CJ-FXa (benzylsulphonyl-D-arginyl-glycyl-4-amidinobenzylamide, Haemochrom GmbH, Essen, Germany) and CJ-PK (benzylsulphonyl-D-seryl-carbobenzoxylsyl-4-amidinobenzylamide, Haemochrom GmbH, Essen, Germany). Research samples were available of DX-9065a ((+)-(2S)-2-[4-[[3S)-1-acetimidoyl-3-pyrrodinyl]oxy]phenyl]-3-[7-amidino-2-naphthyl]propanic acid, Daiichi Pharmaceutical Company Ltd., Tokyo, Japan), and Otamixaban (2-(R)-(3-carbamimidoylbenyzyl)-3-(R)-[4-(1-oxypyridin-4-yl)benzoylamino]-butyric acid-methylester, Sanofi-Aventis GmbH, Frankfurt, Germany), both of which are undergoing clinical tests. In order to examine the inhibitory action of these exemplarily used inhibitors on the blood coagulation factors plasma-kallikrein, VIIa, Xa, XIa and XIIa, the Ki values of the respective enzyme-inhibitor complexes were determined.
(§2) The enzymes were produced by Haemochrom Diagnostica GmbH (Essen, D) and were dissolved in 0.154 mol/l NaCl. The substrates (Pentapharm AG, Basel, CH) were dissolved in H2O and the inhibitor was dissolved in the above-mentioned tris buffer. The following substrates were used for the individual enzymes:
(§3) 200 μl of inhibitor solution were mixed with 25 μl of substrate for the determination and the reaction was started by the addition of 50 μl of enzyme. After a reaction time of 3-5 mins. 25 μl of acetic acid (50%) were added and the extinction was measured at 405 nm with a microplate reader (iEMS Reader MF 12401, Labsystems, Helsinki, Finland). The evaluation was carried out graphically according to Dixon (Biochem. J., 55, 170, 1953).
(§4) The enzymes were produced by Haemochrom Diagnostica GmbH (Essen, D), and only thrombin was manufactured in our own laboratory according to Walsmann (Pharmazie 23, 401-402, 1968). All the enzymes were dissolved in 0.154 mol/l NaCl. The substrates (Pentapharm AG, Basel, CH) were dissolved in H2O and the inhibitor was dissolved in the above-mentioned tris buffer. The following substrates were used for the individual enzymes:
as §3, with “1401,” for “12401,”

[2] = target: T2, Factor XIIa (Homo sapiens, UniProt P00748); test: Determination of Ki values, chromogenic substrate, Dixon evaluation: Factor XIIa; type: biochemical; settings: 25° C., tris buffer pH 8.0, substrate H-D-HHT-Gly-Arg-pNA
T2 construct: purchased Haemochrom Diagnostica GmbH (Essen, D)
T2 sequence (P00748 373-615 limits assumed): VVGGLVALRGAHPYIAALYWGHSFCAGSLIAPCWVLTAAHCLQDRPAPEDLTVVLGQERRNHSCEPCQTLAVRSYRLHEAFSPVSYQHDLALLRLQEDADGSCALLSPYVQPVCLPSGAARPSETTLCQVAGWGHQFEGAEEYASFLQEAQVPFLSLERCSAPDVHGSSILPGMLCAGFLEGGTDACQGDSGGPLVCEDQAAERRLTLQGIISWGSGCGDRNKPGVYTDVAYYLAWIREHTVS
Description: as §1, §2, §3, §4
as §3, with “1401,” for “12401,”

[3] = target: T3, Factor VIIa (Homo sapiens, UniProt P08709); test: Determination of Ki values, chromogenic substrate, Dixon evaluation: Factor VIIa; type: biochemical; settings: 25° C., tris buffer pH 8.0, substrate CH3SO2-D-phe-Gly-Arg-pNA
T3 construct: purchased Haemochrom Diagnostica GmbH (Essen, D)
T3 sequence (P08709 213-466 limits assumed): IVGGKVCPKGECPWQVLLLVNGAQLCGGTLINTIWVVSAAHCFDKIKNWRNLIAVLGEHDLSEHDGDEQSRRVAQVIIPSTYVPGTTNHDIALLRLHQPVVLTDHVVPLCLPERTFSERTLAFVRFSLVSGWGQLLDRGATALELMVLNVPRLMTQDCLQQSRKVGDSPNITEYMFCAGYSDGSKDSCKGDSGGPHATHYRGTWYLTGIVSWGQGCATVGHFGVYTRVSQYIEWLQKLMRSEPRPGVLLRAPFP
T3 sequence (P08709 61-212 partner limits assumed): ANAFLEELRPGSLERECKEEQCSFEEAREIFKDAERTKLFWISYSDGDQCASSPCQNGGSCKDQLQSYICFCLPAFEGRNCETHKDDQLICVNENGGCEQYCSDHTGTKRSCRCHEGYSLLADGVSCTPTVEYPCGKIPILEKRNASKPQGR
Description: as §1, §2, §3, §4
as §3, with “1401,” for “12401,”

[4] = target: T4, Plasma-kallikrein (Homo sapiens, UniProt P03952); test: Determination of Ki values, chromogenic substrate, Dixon evaluation: plasma-kallikrein; type: biochemical; settings: 25° C., tris buffer pH 8.0, substrate Bz-Pro-Phe-Arg-pNA; read-out: Ki PK (plasma-kallikrein)
T4 construct: purchased Haemochrom Diagnostica GmbH (Essen, D)
Description: In a particularly preferred embodiment the compound according to Formula (I) inhibits not only the blood coagulation factor XA but also thrombin and/or plasma kallikrein. […] Here too the Ki value stands for the dissociation constant of the respective enzyme-inhibitor complex. The determination of the Ki values of the inhibitors vis-a-vis thrombin and plasma kallikrein is preferably carried out in a similar manner to the determination, described above, of the Ki values of the inhibitors vis-a-vis the coagulation factor Xa, but in this case CH3SO2-D-HHT-gly-arg-pNA (with HHT=hexahydrothyrosin, and pNA=para-nitroaniline; sold under the commercial name Pefachrome tPA) are used as substrates in the case of thrombin and bz-pro-phe-arg-pNA (with bz=[…], and pNA=para-nitroaniline; sold under the commercial name Chromozym PK) in the case of plasma-kallikrein.
as §1, §2, §3, §4
as §3, with “1401,” for “12401,”

[5] = target: T5, Factor Xa (Homo sapiens, UniProt P00742); test: Determination of Ki values, chromogenic substrate, Dixon evaluation: Factor Xa; type: biochemical; settings: 25° C., tris buffer pH 8.0, substrate CH3OCO-D-Cha-Gly-Arg-pNA
T5 construct: purchased Haemochrom Diagnostica GmbH (Essen, D)

[6] = system: human vein blood; test: Storage of human vein blood after anticoagulation with inhibitor (F1+2 immunoassay)
Protocol: In the sense of the invention anticoagulation means that the re-formation of thrombin is inhibited in the sampled blood. According to the invention thrombin re-formation is inhibited when no more than 1 nM of thrombin is re-formed in the sampled blood. As described above, the activation of prothrombin to thrombin represents an essential step in the blood coagulation cascade. In this case the prothrombin fragment 1+2 (F1+2) is released in equivalent quantities. It is therefore possible to quantify the thrombin actually formed by determining the fragment produced, thus enabling the prothrombin fragment F1+2 to be used as an indirect marker of an activation of prothrombin to thrombin. The concentration of the prothrombin fragment F1+2 formed may be determined immunologically, for example, with commercial enzyme immunoassays (for example Enzygnost F1+2 micro, Dade Behring GmbH, Marburg).
According to the invention anticoagulation therefore means that no more than 1 nM of prothrombin fragment F1+2 is newly formed in the blood after its sampling. […] Without suitable treatment of the blood to prevent coagulation there is an increase in the concentration of the prothrombin fragment F1+2 in this example to well over 1.3 nM, within a few minutes, due to the plasmatic coagulation, i.e. the blood coagulates.
In this experiment it was determined how long human vein blood can be stored without the formation of thrombin or activation of thrombocytes.
For this purpose blood (9 parts) sampled from a patient was mixed with inhibitor solution (0.05 mM, 0.5 mM or 5 mM in physiological NaCl solution; 1 part). Some of the blood was stored at 25° C., the remainder in the refrigerator at 4° C. The quantity of thrombin formed was determined immunologically during storage based on the formation of the prothrombin fragment F1+2 (Enzygnost F1+2 micro, Dade Behring GmbH, Marburg). […] In this case it is irrelevant whether the blood samples were kept at room temperature (approx. 25° C.) or at 4° C.
For this purpose blood (9 parts) sampled from a patient was mixed with inhibitor solution (0.05 mM, 0.5 mM or 5 mM in physiological NaCl solution; 1 part) and stored at room temperature (about 22±2° C.). The quantity of thrombin formed was determined immunologically during storage based on the formation of the prothrombin fragment F1+2 (Enzygnost F1+2 micro, Dade Behring GmbH, Marburg). It was shown that BAPA′ is capable of keeping anticoagulated blood uncoagulated at a concentration in the blood of 500 μM or 50 μM for more than 48 hours (Table 4). At a concentration of 5 μM BAPA′ prevents coagulation for more than 8 hours.

[7] = system: thrombocytes; test: Thrombocyte propagation on plastic object carriers, Example 4; type: cell-based, human; settings: PRP, 24 hours after blood sampling
Protocol: (§5) For this purpose blood was taken within 1 hour from 12 healthy subjects. 1 aliquot of each of the 12 blood samples was anticoagulated with citrate and 1 other aliquot of the 12 blood samples was anticoagulated with a direct inhibitor of the blood coagulation factor Xa. For this purpose 9 parts of blood were mixed with 1 part of citrate (0.106 mol/l) or 1 part of inhibitor solution in a suitable concentration. Platelet-rich plasma (PRP) was manufactured by centrifuging at 164×g over 10 minutes. The thrombocytes in PRP were activated by induced aggregation according to Born with 5 μmols/l of ADP, 2 μg/ml of collagen and 0.5 mmol/l of arachidonic acid. Impedance full blood aggregometry was carried out with the Multiplate aggregometer and with 6.5 μmols/l of ADP, 3.2 μg/ml of collagen and 0.5 mmol/l of arachidonic acid. The analyses were conducted 1, 2, 3, 4, 5, 10 and 24 hours after blood sampling.
On the contrary, less than 10% of the thrombocytes in RPR anticoagulated with citrate were still propagated 24 hours after blood sampling.

[8] = system: thrombocytes; test: Induced aggregation of thrombocytes (Born in PRP, impedance full blood aggregometry) after anticoagulation, Example 4; type: cell-based, human; settings: 24 hours after sampling; ADP, collagen, arachidonic acid
Protocol: as §5

[9] = system: thrombin formation; test: Inhibition of thrombin formation (prothrombin fragment F1+2) in hirudin-anticoagulated plasma after activation by kaolin; type: biochemical, human; settings: inhibitor 100 μM, 37° C.
Protocol: In this example thrombin formation was activated in plasma anticoagulated with hirudin by the addition of kaolin and the ability of the inhibitors to inhibit thrombin formation was examined.
Blood sampled from a patient was initially anticoagulated by means of the thrombin inhibitor hirudin. For this purpose 9 parts of blood were mixed with 1 part of hirudin solution (recombinant hirudin HBW 023, Hoechst, Frankfurt, 2000 E/ml of physiological NaCl solution), then centrifuged for 10 minutes at 1300 revolutions per minute (rpm). 900 μl of the plasma anticoagulated with hirudin, present in excess, were mixed in polypropylene tubes with 50 μl of inhibitor solution or 0.9% NaCl solution and 50 μl kaolin suspension (from APTT-Test from Roche Diagnostics, diluted 1:250 before use with physiological NaCl solution), and incubated at 37° C. with light shaking. In this case kaolin acts as a non-physiological surface which activates the blood coagulation thereby finally stimulating thrombin formation. At certain times the quantity of the thrombin formed was determined immunologically on the basis of the formation of the prothrombin fragment F1+2 (Enzygnost F1+2 micro, Dade Behring GmbH, Marburg). This determination is based on an enzyme immunoassay according to the sandwich principle. For this purpose aliquot volumes (600 μl) were anticoagulated at certain times with 0.1 M EDTA (40 μl) and kept at −20° C. To determine the concentration of the prothrombin fragment F1+2 50 μl of plasma (if necessary diluted with PBS, phosphate-buffered saline) were incubated with monoclonal antibodies against the human prothrombin fragment F1+2, which were fixed on a microtitre plate included in the test kit. After a washing stage with PBS, which was used to remove sample material not bound by the antibodies, antibodies conjugated with peroxidase were incubated against human prothrombin binding to the free F1+2 determinants. […] This was then determined photometrically at a wavelength of 492 nm. […]

[10] = 25° C., concentration in the blood 50 μM
[11] = 25° C., concentration in the blood 500 μM

T4 sequence (P03952 391-638 limits assumed): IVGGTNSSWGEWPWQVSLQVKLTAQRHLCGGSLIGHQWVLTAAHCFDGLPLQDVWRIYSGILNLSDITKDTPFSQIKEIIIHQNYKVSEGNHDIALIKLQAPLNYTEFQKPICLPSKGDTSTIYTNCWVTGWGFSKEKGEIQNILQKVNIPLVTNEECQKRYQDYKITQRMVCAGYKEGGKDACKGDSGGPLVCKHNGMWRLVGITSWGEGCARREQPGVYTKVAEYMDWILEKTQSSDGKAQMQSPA
T4 sequence (P03952 20-390 partner limits assumed): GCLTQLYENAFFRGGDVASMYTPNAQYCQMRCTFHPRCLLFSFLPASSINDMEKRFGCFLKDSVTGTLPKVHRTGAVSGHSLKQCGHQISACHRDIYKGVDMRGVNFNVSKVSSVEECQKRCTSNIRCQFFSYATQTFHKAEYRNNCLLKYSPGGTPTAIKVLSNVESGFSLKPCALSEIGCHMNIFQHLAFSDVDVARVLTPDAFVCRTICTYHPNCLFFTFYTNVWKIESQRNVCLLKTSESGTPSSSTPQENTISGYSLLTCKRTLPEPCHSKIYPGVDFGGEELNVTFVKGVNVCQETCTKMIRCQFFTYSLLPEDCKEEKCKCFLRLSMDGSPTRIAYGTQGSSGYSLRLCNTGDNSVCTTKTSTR
T1 sequence (P03951 388-625 limits assumed): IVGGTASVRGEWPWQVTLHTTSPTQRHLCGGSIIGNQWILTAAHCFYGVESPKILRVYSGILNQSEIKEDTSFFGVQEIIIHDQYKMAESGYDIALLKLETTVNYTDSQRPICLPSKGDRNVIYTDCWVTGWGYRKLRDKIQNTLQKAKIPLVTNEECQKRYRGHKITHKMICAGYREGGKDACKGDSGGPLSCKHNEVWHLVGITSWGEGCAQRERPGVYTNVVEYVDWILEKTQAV
T1 sequence (P03951 19-387 partner limits assumed): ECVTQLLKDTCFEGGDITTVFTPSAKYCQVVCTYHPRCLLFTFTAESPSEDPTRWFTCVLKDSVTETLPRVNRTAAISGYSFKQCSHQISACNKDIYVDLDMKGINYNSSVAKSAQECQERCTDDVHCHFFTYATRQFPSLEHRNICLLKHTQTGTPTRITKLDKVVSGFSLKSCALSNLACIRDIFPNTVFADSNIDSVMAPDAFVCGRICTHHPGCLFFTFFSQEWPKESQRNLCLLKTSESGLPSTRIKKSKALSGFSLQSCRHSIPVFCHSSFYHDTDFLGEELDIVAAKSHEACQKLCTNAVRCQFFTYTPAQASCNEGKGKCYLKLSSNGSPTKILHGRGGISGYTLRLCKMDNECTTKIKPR
T5 sequence (P00742 235-488 limits assumed): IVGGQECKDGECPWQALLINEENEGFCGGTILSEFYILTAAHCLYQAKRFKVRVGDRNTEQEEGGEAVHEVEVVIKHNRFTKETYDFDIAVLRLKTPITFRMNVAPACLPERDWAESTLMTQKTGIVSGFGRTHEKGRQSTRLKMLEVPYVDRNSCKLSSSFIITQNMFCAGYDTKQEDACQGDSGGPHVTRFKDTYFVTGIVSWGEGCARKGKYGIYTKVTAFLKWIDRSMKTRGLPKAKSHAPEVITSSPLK
T5 sequence (P00742 41-179 partner limits assumed): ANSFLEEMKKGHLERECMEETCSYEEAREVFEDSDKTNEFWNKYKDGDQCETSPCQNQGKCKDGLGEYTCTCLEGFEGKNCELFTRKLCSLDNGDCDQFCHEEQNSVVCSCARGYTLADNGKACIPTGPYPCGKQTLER

| Compound | Ki [1] [nM] | Ki [2] [nM] | Ki [3] [nM] | Ki [4] [nM] | Ki [5] [nM] | Anticoagulation time ([6]; 4° C., concentration in the blood 500 μM) [h] | Anticoagulation time [6, 10] | Anticoagulation time ([6]; 25° C., concentration in the blood 50 μM, listed as CJ-Fxa) [h] | Anticoagulation time [6, 11] [h] | thrombocytes showing normal propagation on plastic object carriers [7] | induced aggregation relative to the initial value [8] | suppression of thrombin formation after kaolin activation [9] |
| --- | --- | --- | --- | --- | --- | --- | --- | --- | --- | --- | --- | --- |
| N=C(N)NCCC[C@@H](NS(=O)(=O)Cc1ccccc1)C(=O)N1CCC[C@H]1C(=O)NCc1ccc(C(=N)N)cc1 [BAPA′, benzylsulphonyl-D-arginyl-prolyl-4-amidinobenzylamide] | 27 | 130 | 830 |  |  |  |  |  |  |  |  |  |
| N=C(N)NCCC[C@@H](NS(=O)(=O)Cc1ccccc1)C(=O)NCC(=O)NCc1ccc(C(=N)N)cc1 [CJ-FXa, benzylsulphonyl-D-arginyl-glycyl-4-amidinobenzylamide] | 800 | 350 | 9600 | 84 | 3.5 | >48 | approx. 24 h | 12 to 24 | >48 |  |  |  |
| CC(=N)N1CC[C@H](Oc2ccc([C@H](Cc3ccc4ccc(C(=N)N)cc4c3)C(=O)O)cc2)C1 [DX-9065a] | 2300 | 340 | 92000 | 530 |  |  | 5 to 7 h |  | 7 to 12 |  |  |  |
| O=C(O)CC(O)(CC(=O)O)C(=O)O [citrate, trisodium citrate] |  |  |  |  |  |  |  |  |  | less than 10% | 20 to 30 % of the initial value |  |
| benzylsulphonyl-D-seryl-carbobenzoxylsyl-4-amidinobenzylamide [CJ-PK] | 250 | 12000 | 3800 | 3.5 | 2900 |  |  |  |  |  |  | suppress thrombin formation effectively |
